Measurements from patent US12097188B2, “Compositions and methods for the treatment of macular degeneration” (Aldeyra Therapeutics, Inc., priority 2009, dated 2024).
Where two headings read alike, the source gives them in different places.

Assays:
[1] = tested on: visual cycle; test: Functional biological activity in the retina: visual cycle inhibition / dark adaptation rate by ERG; conditions: for effect on normal function of the retina: mouse, in vivo
Text: (§2) The protocol for measuring DA rates by ERG is based on the kinetics of functional visual recovery from photo-bleaching of visual pigment by brief exposure to extremely bright light.
(§3) A retinoid useful for this purpose is 13-cis-retinoic acid (RA, also known as isotretinoin).

[2] = tested on: A2E formation; test: A2E formation in the abcr -/- mouse after repeated IP dosing; type: in vivo; conditions: 10 mg/kg IP, repeated daily for 56 days, p<0.01
Text: (§1) The target tissue, for the biological activity of compounds which reversibly react with RAL, e.g. Compounds A, B and C, is the outer segment of retinal photoreceptor cells.

[3] = in vivo; design: species or system C57BL/6 mice; conditions: ip, 10 mg/kg
Text: as §1

[4] = Ocular levels of 14C-Compound A in the retina and RPE of rabbits (LSC); type: in vivo, Dutch belted rabbits; conditions: for Amount of 14C-compound A in retina and RPE at tmax: rabbit, single 40 μL TO eyedrop, mean of 6 eyes
Experimental: Dutch belted rabbits were dosed TO with a single 40 μL eyedrop containing either 0.50%, 0.15% or 0.05% weight/volume ^14C-Compound A in 20%, 6% or 2% weight/volume, respectively, β-cyclodextrin sulfobutylether sodium salt in phosphate-buffered saline (Table 1). At different times after dosing the eyes of the rabbits were enucleated, dissected and the amount of ^14C-Compound A in the retina and RPE together was measured by LSC. Each value represents the mean value from 6 eyes.

[5] = tested on: visual cycle; conditions: mouse, in vivo
Text: as §2, §3

For CC(C)(O)c1cc2nc(-c3ccccc3)oc2cc1N [B], the “effect on normal function of the retina” value [1] was “do not alter the normal function of the retina”.
With CC(C)(O)c1cc2oc(-c3ccccc3)nc2cc1N [C] the “effect on normal function of the retina” value [1] was “do not alter the normal function of the retina”.
For CC(C)(O)c1nc2ccc(Cl)cc2cc1N [Compound A], the “reduction of A2E formation” value [2] was 71%, the Cmax ([3]; C57BL/6, mouse) was 14400 ng/g and the “Tmax in the posterior eyecup” value ([3]; mouse) was “Thirty”. The “Amount of 14C-compound A in retina and RPE at tmax” value (“Amount … at tmax” below) ([4]; 0.05% w/v in 2% w/v βCSSA) was 23.1 ng/g, the “Amount … at tmax” value ([4]; 0.15% w/v in 6% w/v βCSSA) was 47.0 ng/g and the “Amount … at tmax” value ([4]; 0.50% w/v in 20% w/v βCSSA) was 131 ng/g. For the same molecule, the “amounts found in rabbit retina/RPE” value ([4]; within one hour of TO dosing) was “Significant amounts”, the “effect on normal function of the retina” value [5] was “do not alter the normal function of the retina” and the “effect on rate of dark adaptation (DA)” value [5] was “nor does it slow the rate of dark adaptation”. The “inhibition of the visual cycle” value [5] was “does not inhibit the visual cycle”.
In the case of CC1=C(/C=C/C(C)=C/C=C/C(C)=C\C(=O)O)C(C)(C)CCC1 [RA, 13-cis-retinoic acid, reference compound], the visual cycle inhibition ([1]; mice, IP 20 mg/kg (FIG. 3)) is reported as “show visual cycle inhibition” and the “inhibition of dark adaptation (DA)” value ([1]; mice, TO one or two 30 μL eyedrops, 0.2% w/v RA in 20% w/v β-cyclodextrin sulfobutylether sodium salt in PBS (FIG. 3)) is reported as “dose-responsive inhibition of DA similar to that observed after IP dosing”.
